Series [1] has as its system HCV replicon (genotype 1b) in Huh7 hepatoma cell line ET. The series can be described thus: microbe, parasite or virus in culture. It is filed as cell-based, Hepatitis C virus. The note with it: read-out: HCV-Replicon-1b_IC50. (Replicon systems follow genome replication, usually without infectious particles.)
Series [2] in a line: [3H]Thymidine incorporation assay (cytotoxicity, CC50). The note with it: human.
The test system of series [3] is HCV sub-genomic replicon of genotype 1a in replicon cell line W11.8. The series can be described thus: microbe, parasite or virus in culture. It is filed as cell-based, Hepatitis C virus. The note with it: read-out: HCV-Replicon-ELISA-1a IC50.
The subject of series [4] is Huh-7 ET, Molt-4, DU-145, Hep-G2 and SH-SY5Y cells. Kind of series: [3H]Thymidine incorporation assay (cytotoxicity, CC50). The note with it: [3H]thymidine incorporation; cell line not given.

Where two headings read alike, the source gives them in different places.

The term CC50 denotes the concentration giving 50% cytotoxicity. Read a low CC50 as harm at low concentration. As for `CC(C)(C)C#Cc1cc(N(C(=O)c2ccc(Cl)cc2F)[C@H]2CC[C@H](O)CC2)c(C(=O)O)s1` [Compound 91, 3-[(4-Chloro-2-fluoro-benzoyl)-(trans-4-hydroxy-cyclohexyl)-amino]-5-(3,3-dimethyl-but-1-ynyl)-thiophene-2-carboxylic acid], the IC50 in series [1] (Hepatitis C virus, Huh-7, 96 h) was 0.1 to 1 µM. Further, the CC50 at 72 h in series [2] fell in the range of 10 to 100 µM.

With `Cc1ccc(C(=O)N(c2cc(C#CC(C)(C)C)sc2C(=O)O)[C@H]2CC[C@H](O)CC2)c(C)c1` [Compound 83, 3-[(2,4-Dimethyl-benzoyl)-(trans-4-hydroxy-cyclohexyl)-amino]-5-(3,3-dimethyl-but-1-ynyl)-thiophene-2-carboxylic acid], the IC50 in series [1] (Hepatitis C virus, Huh-7, 96 h) lay in the range of 0.1 to 1 µM.

Turning to `CC(C)C#Cc1cc(N(C(=O)[C@H]2CC[C@H](C)CC2)C2CCN(C(=O)CCCCCN)CC2)c(C(=O)O)s1` [Compound 95, 3-((trans-4-Methylcyclohexanecarbonyl)-(1-(6-amino-hexanoyl)-piperidin-4-yl)amino)-5-(3-methylbut-1-ynyl)thiophene-2-carboxylic acid], the IC50 in series [1] (Hepatitis C virus, Huh-7, 96 h) fell in the range of 0.1 to 1 µM. This molecule also returned a CC50 at 72 h in series [2] of 10 to 100 µM.

As for “Methyl-5-(3,3-dimethylbut-1-yn-1-yl)-3-(trans-4-methyl-N-(cis-3-((dimethylamino)methyl)cyclobutyl)cyclohexanecarboxamido)thiophene-2 carboxylate [Compound 65]”, the IC50 in series [1] and in series [3] was less than 0.1 µM in each case. Besides, the half-maximal cytotoxic concentration (CC50) in series [4] was 10 to 100 µM.

Consider `CC(C)(C)C#Cc1cc(N(C(=O)[C@H]2CC[C@H](C)CC2)[C@H]2CC[C@H](OC3CC3)CC2)c(C(=O)O)s1` [Compound 38, 5-(3,3-Dimethylbut-1-yn-1-yl)-3-((N-4-trans-cyclopropoxycyclohexyl)-4-trans-methylcyclohexanecarboxamido)thiophene-2-carboxylic acid], for which the IC50 in series [1] is less than 0.1 µM; in series [3], 0.1 to 1 µM. Moreover, the CC50 in series [4] lay within 10 to 100 µM.

Take `CC(C)C#Cc1cc(N(C(=O)[C@H]2CC[C@H](C)CC2)[C@H]2CC[C@H](O)CC2)c(C(=O)O)s1` [Compound 4, 5-(3-methylbut-1-ynyl)-3-[(4-trans-hydroxycyclohexyl)-(4-trans-methylcyclohexanecarbonyl)amino]thiophene-2-carboxylic acid]: the IC50 in series [1] and in series [3] was less than 0.1 µM throughout. The molecule further returned a 50% cytotoxic concentration (CC50) in series [4] of 10 to 100 µM.

Regarding `Cc1ccc(C(=O)N(c2cc(C#CC(C)(C)C)sc2C(=O)O)[C@H]2CC[C@H](O)CC2)cc1F` [Compound 93, 5-(3,3-Dimethyl-but-1-ynyl)-3-[(3-fluoro-4-methyl-benzoyl)-(trans-4-hydroxy-cyclohexyl)-amino]thiophene-2-carboxylic acid], in series [1] (Hepatitis C virus, Huh-7, 96 h), the IC50 lay in the range of 0.1 to 1 µM.

As for `CCO[C@H]1CC[C@H](N(c2cc(C#CC(C)(C)C)sc2C(=O)O)C(=O)[C@H]2CC[C@H](C)CC2)CC1` [Compound 35, 5-(3,3-Dimethylbut-1-yn-1-yl)-3-((N-4-trans-ethoxycyclohexyl)-4-trans-methylcyclohexanecarboxamido)thiophene-2-carboxylic acid], the IC50 in series [1] was less than 0.1 µM; in series [3], 0.1 to 1 µM. For the same molecule, in series [4], the half-maximal cytotoxic concentration (CC50) was in the range of 10 to 100 µM.

Turning to `CC[C@@H](C(=O)O)N(c1cc(C#CC(C)(C)C)sc1C(=O)O)C(=O)[C@H]1CC[C@H](C)CC1` (relative stereo) [Compound 41, 3-(N—((S)-1-carboxypropyl)-(4-trans-methylcyclohexane)-carboxamido)-5-(3,3-dimethylbut-1-yn-1-yl)thiophene-2-carboxylic acid], the IC50 in series [3] is less than 0.1 µM. The half-maximal cytotoxic concentration (CC50) in series [4] is more than 100 µM.
